The values below come from article PMC12770539 (Scientific Reports, 2025).

For series [1] the following is noted: cited from earlier work.
Another series in a line: TGA analysis. It counts as physicochemical.
For series [2] the following is noted: oral administration, 30 mg/kg dose; cited from earlier work.
The conditions of series [3]: cited from earlier work. This is another data set of the same source.

Molecules are shown by their SMILES.

Turning to `C[C@@H]1O[C@@H]1P(=O)(O)O` [Fosfomycin calcium], in series [1] (oral), the absorption is given as 10–30%.

Turning to `C[C@@H]1O[C@@H]1P(=O)(O)O.NC(CO)(CO)CO` [Fosfomycin tromethamine], the elimination half-life in series [1] is 2 h. Besides, the “serum concentration (Cmax)” value in series [1] (single 3-gm dose) is 26.1 (± 9.1) µg/mL.

In the case of `C[C@@H]1O[C@@H]1P(=O)(O)O` [Fosfomycin], in “TGA analysis”, the “temperature at which degradation initiates (TGA)” value amounted to 150 °C and the “temperature range of marked weight loss (TGA)” value was 200–400 °C. In series [2], the “calculated Tmax” value is on record as 3.00 ± 0.00 h and the “mean peak concentration (Cmax)” value was 3.60 ± 0.96 µg/mL.

For `Cc1ncc([N+](=O)[O-])n1CCO` [Metronidazole], the “local irritation, share of users” value in series [3] (vaginal administration) was 10–15%. In addition, the “cure rate for bacterial vaginosis” value in series [3] (vaginal suppositories, within 7 days) was roughly 80%.
